Experimental findings from ChEMBL document CHEMBL5584317, “Acroamine A, a 2-Amino Adenine Alkaloid from the Marine Soft Coral Acrozoanthus australiae and Its Semisynthetic Derivatives That Inhibit cAMP-Dependent Protein Kinase A Catalytic Subunit Alpha” (J Nat Prod, 2024) are described below.

Active and inactive are the calls of the source. The calls are words filed in the database; no cut-off is given here.

Broadly, the IC50 is the concentration that gives 50% inhibition.

Test [1] has as its target T1, cAMP-dependent protein kinase catalytic subunit alpha (Homo sapiens, UniProt P17612). Put plainly: Inhibition of PKAcalpha (unknown origin) using CREB KRREILSRRPSYR-biotinylated peptide as substrate incubated for 45 mins in presence of ATP by ELISA.
Test [2] in a line: Inhibition of DNAJB1-[…] gene fusion of J-PKAc alpha chimeric protein (unknown origin) using CREB KRREILSRRPSYR-biotinylated peptide as substrate incubated for 45 mins in presence of ATP by ELISA. Also noted: species or system Homo sapiens. On the technique in general: An ELISA detects its analyte on a solid surface through an enzyme-linked reagent.
The species entered for test [3] is Homo sapiens. Briefly: Inhibition of DNAJB1-[…] gene fusion of J-PKAc alpha chimeric protein (unknown origin) up to 200 uM using CREB KRREILSRRPSYR-biotinylated peptide as substrate incubated for 45 mins in presence of ATP by ELISA.
Test [4] concerns the target T1, cAMP-dependent protein kinase catalytic subunit alpha. Put plainly: Inhibition of PKAcalpha (unknown origin) up to 200 uM using CREB KRREILSRRPSYR-biotinylated peptide as substrate incubated for 45 mins in presence of ATP by ELISA.
Test [5] is filed under the species Homo sapiens. Put plainly: Inhibition of DNAJB1-[…] gene fusion of J-PKAc alpha chimeric protein (unknown origin) at 10 uM using CREB KRREILSRRPSYR-biotinylated peptide as substrate incubated for 45 mins in presence of 25 to 250 uM ATP by ELISA.
In test [6] the target is T1, cAMP-dependent protein kinase catalytic subunit alpha. Put plainly: Potency index, ratio of IC50 for acroamine A to IC50 for test compound for inhibition PKAcalpha (unknown origin) using CREB KRREILSRRPSYR-biotinylated peptide as substrate incubated for 45 mins in presence of ATP by ELISA.
The species entered for test [7] is Homo sapiens. Put plainly: Potency index, ratio of IC50 for acroamine A to IC50 for test compound for inhibition of DNAJB1-[…] gene fusion of J-PKAc alpha chimeric protein (unknown origin) using CREB KRREILSRRPSYR-biotinylated peptide as substrate incubated for 45 mins in presence of ATP by ELISA.
Test [8] is filed under the species Homo sapiens. Briefly: Inhibition of DNAJB1-[…] gene fusion of J-PKAc alpha chimeric protein (unknown origin) at 2 uM using CREB KRREILSRRPSYR-biotinylated peptide as substrate incubated for 45 mins in presence of 25 to 250 uM ATP by ELISA.

Regarding `Nc1nc(NCCc2c[nH]cn2)c2nc[nH]c2n1`, the values for the IC50 in test [1] and in test [2] were 29 µM and 47 µM, respectively.
With `Cn1cc(CCNc2nc(=N)n(C)c3ncn(C)c23)[n+](C)c1`, the inhibition result (in the test listed under Homo sapiens [3]; in test [4]) was “inactive” each time.
Regarding `C/N=c1\nc(NCCc2cn(C)c[n+]2C)c2c(ncn2C)n1C`, the inhibition result (in the test listed under Homo sapiens [3]; in test [4]) was “inactive” in each case.
Consider `C/N=c1\nc(N(C)CCc2cn(C)c[n+]2C)c2c(ncn2C)n1C`, for which the inhibition result (in the test filed under Homo sapiens [3]; in test [4]) was “inactive” throughout.
Consider `Cn1cc(CCNc2n/c(=N\C=[N+](C)C)n(C)c3ncn(C)c23)[n+](C)c1`, for which the inhibition result (in the test listed under Homo sapiens [3]; in test [4]) was “inactive” each time.
On to `Nc1nc(NCCc2nc(Br)[nH]c2Br)c2nc[nH]c2n1`, for which the inhibition result in the test filed under Homo sapiens [5] is “inactive”. Besides, the 50% inhibitory concentration (IC50) worked out at 5.7 µM in test [1] and 8.9 µM in test [2].
On to `Nc1nc(NCCc2nc(Br)[nH]c2Br)c2nc(Br)[nH]c2n1`, for which the IC50 in test [1] was 2.4 µM; in test [2] it was 2.5 µM. For the same molecule, the Ratio IC50 (in test [6]; in the test filed under Homo sapiens [7]) was 19 in each case. Besides, the inhibition entry in the test listed under Homo sapiens [8] was “inactive”.
`Nc1nc(NCCc2nc[nH]c2Br)c2nc[nH]c2n1`: the inhibition result in the test listed under Homo sapiens [5] is “inactive”. For the same molecule, the IC50 was 11.6 µM in test [1] and 11.5 µM in test [2].
For the molecule `CN(C)c1nc(NCCc2cn(C)c[n+]2C)c2c(n1)[n+](C)cn2C`, the inhibition entry (in the test filed under Homo sapiens [3]; in test [4]) was “inactive” throughout.
